Values quoted from earlier work as cited in the CATMoS acute toxicity set (Mansouri et al. 2021).

Assay: rat acute oral toxicity
Conditions: in vivo

Question: With `COC(=O)CCC[N+](C)(C)C` as the compound, how does the LD50 read?
Answer: Its LD50 is 478 mg/kg.

Question: With `CN(C)CCC=C1c2ccccc2CS(=O)c2sccc21` (stereo not given) as the compound, how does the LD50 read?
Answer: The LD50 was 319 mg/kg.

Question: With `CNC(C)Cc1ccccc1OC` (stereo not given) as the compound, how does the LD50 read?
Answer: The LD50 was 630 mg/kg.

Question: With `CC(C)c1ccnc2ccccc12` as the compound, how does the LD50 read?
Answer: Its LD50 is 940 mg/kg.

Question: Which LD50 does the source give for `Cc1ccc(CO)cc1` here?
Answer: The LD50 was 3900 mg/kg.

Question: Which LD50 does the source give for `Nc1cc(Cl)c(NC2=NCCN2)c(Cl)c1` here?
Answer: The LD50 was 38 mg/kg.

Question: With `O=C(Nc1nc2ccc([N+](=O)[O-])cc2s1)c1ccc([N+](=O)[O-])cc1` as the compound, how does the LD50 read?
Answer: The LD50 was 1500 mg/kg.

Question: For `CS(=O)(=O)OC[C@@H]1O[C@H]1[C@@H]1O[C@H]1COS(C)(=O)=O`, which LD50 is on record?
Answer: Its LD50 is 225 mg/kg.

Question: For `BrC12CC3CC(CC(C3)C1)C2`, which LD50 is on record?
Answer: The LD50 was 8470 mg/kg.

Question: For `O=C(OCc1ccccc1)c1ccccc1O`, which LD50 is on record?
Answer: The LD50 was 2230 mg/kg.

Question: For `CN1CCC2(C)c3cc(OC(=O)NCCCCCCCCCCN4CCOCC4)ccc3N(C)C12` (stereo not given), which LD50 is on record?
Answer: The LD50 was 40 mg/kg.

Question: For `C=CCOC(=O)CCC`, which LD50 is on record?
Answer: Its LD50 is 250 mg/kg.

Question: Which LD50 does the source give for `Clc1cc(Cl)cc(C2(CC(Cl)(Cl)Cl)CO2)c1` (stereo not given) here?
Answer: Its LD50 is 1500 mg/kg.

Question: With `CC(C)(C)c1ccc(OP2OCC3(CO2)COP(Oc2ccc(C(C)(C)C)cc2C(C)(C)C)OC3)c(C(C)(C)C)c1` (stereo not given) as the compound, how does the LD50 read?
Answer: The LD50 was 5580 mg/kg.

Question: Which LD50 does the source give for `CCSC(C)CC1CC(=O)C(C(=O)CC)C(=O)C1` (stereo not given) here?
Answer: The LD50 was 170 mg/kg.

Question: For `CCCCN(CCCC)CCCC`, which LD50 is on record?
Answer: Its LD50 is 114 mg/kg.

Question: Which LD50 does the source give for `CCC=C(C)CO` here?
Answer: Its LD50 is 4920 mg/kg.

Question: For `CC(=O)Nc1ccc(C(=O)CCl)cc1`, which LD50 is on record?
Answer: Its LD50 is 2150 mg/kg.

Question: Which LD50 does the source give for `CCCCCCCCCCCCCCCCC[N+](C)(C)C` here?
Answer: Its LD50 is 3650 mg/kg.

Question: For `CCC(C(=O)O)C1(O)CCCCC1` (stereo not given), which LD50 is on record?
Answer: Its LD50 is 4820 mg/kg.

Question: Which LD50 does the source give for `CCCCCOc1c(Br)cc(Br)cc1COCCN(CC)CC` here?
Answer: The LD50 was 350 mg/kg.

Question: Which LD50 does the source give for `ClC1=C(Cl)C2(Cl)C3C(Cl)C(Cl)CC3C1(Cl)C2(Cl)Cl` (stereo not given) here?
Answer: The LD50 was 283 mg/kg.

Question: Which LD50 does the source give for `COP(=S)(OC)SCC(=O)O` here?
Answer: The LD50 was 2500 mg/kg.

Question: For `O=C(O)c1cccc(Cl)n1`, which LD50 is on record?
Answer: Its LD50 is 2180 mg/kg.

Question: Which LD50 does the source give for `COC(=O)[C@H]1[C@H]2C[C@@H]3c4[nH]c5cc(OC)ccc5c4CCN3C[C@H]2C[C@@H](OC(=O)C=Cc2cc(OC)c(OC)c(OC)c2)[C@@H]1OC` here?
Answer: Its LD50 is 1000 mg/kg.

Question: For `CCOc1occ2cnc(C)c(O)c12`, which LD50 is on record?
Answer: Its LD50 is 2150 mg/kg.

Question: Which LD50 does the source give for `C=CCOC(=O)CC#N` here?
Answer: The LD50 was 160 mg/kg.

Question: Which LD50 does the source give for `O=C1C2C3CCC(C3)C2C(=O)N1CCCCN1CCN(c2ncccn2)CC1` (stereo not given) here?
Answer: Its LD50 is 590 mg/kg.

Question: With `CCCN1C[C@H](CSC)C[C@@H]2c3cccc4[nH]cc(c34)C[C@H]21` as the compound, how does the LD50 read?
Answer: Its LD50 is 8.4 mg/kg.

Question: Which LD50 does the source give for `Nc1cc2c(S(=O)(=O)O)cccc2c(S(=O)(=O)O)c1N` here?
Answer: Its LD50 is 29000 mg/kg.

Question: With `CC(CN(C)C)C(C)(O)Cc1ccc(Cl)cc1` (stereo not given) as the compound, how does the LD50 read?
Answer: The LD50 was 802 mg/kg.

Question: Which LD50 does the source give for `CC(=O)OC(OC(C)=O)C(Cl)CCl` (stereo not given) here?
Answer: The LD50 was 320 mg/kg.

Question: Which LD50 does the source give for `CC1COC(C(Cl)(Cl)Cl)O1` (stereo not given) here?
Answer: The LD50 was 380 mg/kg.

Question: With `OCC(CO)N[C@H]1C[C@](O)(CO)[C@@H](O)[C@H](O)[C@H]1O` as the compound, how does the LD50 read?
Answer: Its LD50 is 20000 mg/kg.

Question: For `CC(=O)c1ccc(O)c(C(N)=O)c1`, which LD50 is on record?
Answer: The LD50 was 1700 mg/kg.

Question: For `C#CCSP(=O)(OCC)OCC`, which LD50 is on record?
Answer: Its LD50 is 18 mg/kg.

Question: With `CCCCCCCCCCCCCCCCSCC(COC)COP(=O)([O-])OCC[N+](C)(C)C` (stereo not given) as the compound, how does the LD50 read?
Answer: Its LD50 is 253 mg/kg.

Question: With `NC1CCCC(N)C1` (stereo not given) as the compound, how does the LD50 read?
Answer: Its LD50 is 390 mg/kg.

Question: For `CCS(=O)CC`, which LD50 is on record?
Answer: Its LD50 is 5650 mg/kg.

Question: For `CCOC(=O)c1c[n+](C)c2n(c1=O)C(C)CCC2` (stereo not given), which LD50 is on record?
Answer: Its LD50 is 1500 mg/kg.

Question: With `O=[N+]([O-])c1ccccc1-c1ccccc1` as the compound, how does the LD50 read?
Answer: The LD50 was 1230 mg/kg.

Question: With `CC1(C)SCN(C(=O)C2(Oc3ccc(Cl)cc3)CCCCC2)C1C(=O)O` (stereo not given) as the compound, how does the LD50 read?
Answer: Its LD50 is 4350 mg/kg.

Question: Which LD50 does the source give for `CCC(Cl)Cl` here?
Answer: Its LD50 is 6500 mg/kg.

Question: Which LD50 does the source give for `CN1CC(O)N(c2nnc(C(C)(C)C)s2)C1=O` (stereo not given) here?
Answer: The LD50 was 1540 mg/kg.

Question: Which LD50 does the source give for `CC(C)=C[C@@H]1[C@@H](C(=O)OCc2coc(Cc3ccccc3)c2)C1(C)C` here?
Answer: Its LD50 is 1240 mg/kg.

Question: With `ClC1=C(Cl)C2(Cl)C(Cl)=C(Cl)C3C1C(Cl)CC32` (stereo not given) as the compound, how does the LD50 read?
Answer: The LD50 was 10200 mg/kg.

Question: For `CCOc1ccc(N2C(=O)C=CC2=O)cc1`, which LD50 is on record?
Answer: Its LD50 is 630 mg/kg.

Question: For `C=CC(=O)OCCOCCOC(=O)C=C`, which LD50 is on record?
Answer: The LD50 was 250 mg/kg.

Question: For `COc1ccc(C(N)=O)cc1C(=O)NCc1cccnc1`, which LD50 is on record?
Answer: The LD50 was 1720 mg/kg.

Question: For `C=CC(=O)OCCN(C)C`, which LD50 is on record?
Answer: The LD50 was 455 mg/kg.

Question: Which LD50 does the source give for `CCOc1ccc(N(N=O)C(C)=O)cc1` here?
Answer: Its LD50 is 21 mg/kg.

Question: For `C=COC(=O)C=CC`, which LD50 is on record?
Answer: Its LD50 is 6500 mg/kg.

Question: With `COc1ccc(C(=O)CCC(=O)O)c2cc(C)oc12` as the compound, how does the LD50 read?
Answer: Its LD50 is 2160 mg/kg.

Question: For `O=C1OC(OC(=O)c2cccnc2Nc2cccc(C(F)(F)F)c2)c2ccccc21` (stereo not given), which LD50 is on record?
Answer: Its LD50 is 12000 mg/kg.

Question: With `N#CC(Cl)CCl` (stereo not given) as the compound, how does the LD50 read?
Answer: The LD50 was 22 mg/kg.

Question: With `C=CCOC1=NS(=O)(=O)c2ccccc21` as the compound, how does the LD50 read?
Answer: The LD50 was 2030 mg/kg.

Question: With `CCCCC(=O)CC` as the compound, how does the LD50 read?
Answer: Its LD50 is 2760 mg/kg.

Question: Which LD50 does the source give for `CC(=O)C(NC(=O)C(C)C(O)C(C)NC(=O)C(NC(=O)c1nc(C(CC(N)=O)NCC(N)C(N)=O)nc(N)c1C)C(OC1OC(CO)C(O)C(O)C1(C)OC1OC(CO)C(O)C(O)(C(N)=O)C1O)c1cnc[nH]1)C(=O)NCCC1=NC(c2nc(C(N)=O)cs2)CS1` (stereo not given) here?
Answer: Its LD50 is 649 mg/kg.

Question: With `O=C(C(Cl)Cl)C(Cl)(Cl)Cl` as the compound, how does the LD50 read?
Answer: Its LD50 is 200 mg/kg.

Question: Which LD50 does the source give for `CCCCCCCCCCCCCN1CC(C)OC(C)C1` (stereo not given) here?
Answer: Its LD50 is 650 mg/kg.

Question: For `Oc1c(I)cc(I)c(O)c1I`, which LD50 is on record?
Answer: Its LD50 is 8200 mg/kg.

Question: For `Nc1ccc2ccc3cccc4ccc1c2c34`, which LD50 is on record?
Answer: Its LD50 is 1070 mg/kg.

Question: For `Cc1ccc2[nH]c(=S)[nH]c2c1`, which LD50 is on record?
Answer: Its LD50 is 340 mg/kg.

Question: Which LD50 does the source give for `COc1cc2ccc(=O)oc2cc1OC` here?
Answer: Its LD50 is 292 mg/kg.

Question: Which LD50 does the source give for `C=CC(=O)OCC(CC)(COC(=O)C=C)COC(=O)C=C` here?
Answer: Its LD50 is 5190 mg/kg.

Question: For `COc1cccc(C(=O)CCN[C@@H](C)[C@H](O)c2ccccc2)c1`, which LD50 is on record?
Answer: Its LD50 is 500 mg/kg.

Question: Which LD50 does the source give for `CNCC(O)c1ccc(OC(=O)C(C)(C)C)c(OC(=O)C(C)(C)C)c1` (stereo not given) here?
Answer: Its LD50 is 183 mg/kg.

Question: Which LD50 does the source give for `CC(=O)CC1OCC(CCl)O1` (stereo not given) here?
Answer: The LD50 was 120 mg/kg.

Question: For `N#CC(O)c1cccc(Oc2ccccc2)c1` (stereo not given), which LD50 is on record?
Answer: The LD50 was 800 mg/kg.

Question: For `COc1ccccc1S`, which LD50 is on record?
Answer: The LD50 was 1740 mg/kg.
